Patent publication US3954726A, “Double salts of S-adenosil-L-methionine” (Bioresearch Limited, priority 1973, dated 1976)
Like-named read-outs stand apart in the source and are kept apart here.

How the values were obtained:
[1] = Clinical: antalgic activity in neurological frameworks and cephalalgia; assay type: in vivo, human
Description: The antalgic activity of SAM was also tested in different subjects with different neurological frameworks: neuritis, polyneuritis, anthralgia, sciatica, radiocolitis, torticollis.

[2] = assay type: in vivo, human
[3] = Hepatic steatosis in rats (Handler diet, acute alcoholic intoxication, carbon tetrachloride, bromobenzene); assay type: in vivo, rat
Text: This was confirmed by successive pharmacological tests.

physchem [4] = assay type: physicochemical
man = assay: Tolerability in young volunteer healthy subjects (pressure, pulse, respiration, ECG, hemopoietic, hepatic and renal); assay type: in vivo
rabbit [5] = details: in vivo, 40 mg/kg
[6] = Clinical: Parkinsons disease and Parkinsonisms, in association with Levodopa; assay type: in vivo, human
rabbits = details: rabbit, in vivo
[7] = Clinical: disturbances of the sleeping-waking rhythm; assay type: in vivo, human; details: 10-30 mg orally, insomnia
[8] = rat, in vivo, 10 mg/kg
Description: (§1) Sam^+.hso4^-.h2 so4 .2 ch3 c6 h4 so3 h and/or SAM^+.HSO4^-.H2 SO4.CH3 C6 H4 SO3 H. In order to indicatively determine how SAM is distributed in the tissues, S-Adenosilmethionine (Methyl C^14) was prepared. The distribution of this product in rats was studied by administering a dose of 10 mg/kg/e.v. equal to 24 μci of radioactive product. The specific activity of the product was 58 mCi/m moles. Parallel to this, an autoradiographic study was made on the mouse.
Distribution of SAM in some rat tissues.
The values are expressed as μgr/gr.

[9] = Hot plate test (analgesia); details: rat, in vivo
Text: (§2) Ot the various tests we shall mention the most classic, namely the edema by carragenine and by egg white as a test for acute inflammation; and granuloma by cotton […] arthritis by adjuvant as a test for chronic inflammation. […] The analgesia tests were in the form of the hot plate tests and stretching by acetic acid, and the Randal and Drlitto tests in the rat.

[10] = mouse, in vivo
Description: as §1

[11] = Clinical: arteriosclerosis, hypoxydotic states, post-apoplectic syndromes; assay type: in vivo, human
physchem [12] = details: dry state, percentage of SAM residue
Description: (§3) The figures refer to the percentage of SAM residue after the times indicated:

[13] = Arthritis by adjuvant (chronic inflammation); assay type: in vivo; details: orally 20-100 mg/kg and parenterally 10-20 mg/kg
Text: as §2

[14] = Clinical: metabolism of lipids (hepatosteatosis, hyperdislipidemia); assay type: in vivo, human
Text: Following the information gained from the pharmacological tests, the clinical tests were orientated on morbid affections in which the following appear primitively or secondarily altered: […]

[15] = Edema by egg white (acute inflammation); assay type: in vivo; details: orally 20-100 mg/kg and parenterally 10-20 mg/kg
Text: as §2

[16] = Clinical: depressive forms (tests of Hamilton and Wittenberg); assay type: in vivo, human; details: 20-50 mg 3-4 times per day, 5-15 days, no other therapy
[17] = Stretching by acetic acid (analgesia); details: rat, in vivo
Text: as §2

cat = details: in vivo, 40 mg/kg
rabbit [18] = assay: Local tolerability of intermuscular and intravenous injection; assay type: in vivo
rats = details: rat, in vivo
[19] = Hepatic cholesterol degeneration in the rat (Ridout diet); assay type: in vivo; details: 3 weeks; for Fresh liver weight: cholesterol diet
Description: In studying the hepatoprotective activity we have used an experimental device which produces in the rat the so-called hepatic cholesterol degeneration (Ridout and Coll., Biochem. J. 52, 99, 1952).
In this method, by means of a suitable diet, a conspicuous increase in the total hepatic fats and hepatic cholesterol are obtained in the animals. The substances which act in the lipidic metabolism reduce or annul this increase.
The animals were divided into six groups. The first group was administered with a diet which was varied at will. The second group was administered with the basic diet of Ridout (20 g per rat per day); the other groups were administered with the same diet in the same doses but enriched with cholesterol to the extent of 0.2 g/rat/day. The treatment lasted 3 weeks.
The groups 4,5,6 were administered with SAM in the following doses: 1,2,5 mg/kg/i.p. per day.
At the end of 3 weeks all the animals were killed, the livers were withdrawn and the total fats (Best and Coll., Biochem. J. 40, 368, […]) and cholesterol (Sperry and Brand, J. Biol. Chem. 150, 315, 1943) were determined.

[20] = Clinical: hypoprotidemias, disprotidemias, hepatopathias, cyrrotic states, malabsorption; assay type: in vivo, human; details: 20-200 mg per day
Description: 2. Hundreds of subjects were treated clinically affected with: secondary hypoprotidemias and disprotidemias; persistent and aggressive cronic hepatopathias; precyrrotic and cyrrotic states; malabsorption syndromes, protide dispersing syndromes.

[21] = Edema by carragenine (acute inflammation); assay type: in vivo; details: orally 20-100 mg/kg and parenterally 10-20 mg/kg
Text: as §2

[22] = Granuloma by cotton peelets (chronic inflammation); assay type: in vivo; details: orally 20-100 mg/kg and parenterally 10-20 mg/kg
Text: as §2

[23] = Randal and Drlitto test (analgesia); assay type: in vivo; details: rat
Text: as §2

[24] = dry state
Description: as §3

[25] = hyperdislipidemia in the uncompensated stage
[26] = intermuscular, intravenous or oral

With C[S+](CC[C@H](N)C(=O)O)C[C@H]1O[C@@H](n2cnc3c(N)ncnc32)[C@H](O)[C@@H]1O (stereo partly shown) [SAM, SAM disulphate di-p-toluenesulphonate] the “antalgic effect in neurological frameworks” value ([1]; 15 mg twice a day intermuscular or 30-50 mg 3-4 times per day orally) was “available and efficient from the first day of administration”, the “recurring and resistant cephalalgia” value ([1]; orally in masticable tablets) was “Analogous results” and the “activity in osteoarthritic forms” value ([2]; 30 mg twice a day i.m. or i.v., and 30-50 mg orally 4 times per day) was “active in all osteoarthritic forms treated”. The “muscular spasm, limitation of movement, localised pain, rigidity” value ([2]; after 7 days of treatment, versus placebo) was “influenced in a statistically significant manner”, the “therapeutic efficiency compared with indomethacin” value ([2]; double blind study) was “equal to indomethacin” and the “concealed blood in the feces” value ([2]; human, in vivo) was “never showed any modification”. The gastric pyrosis ([2]; human, in vivo) was “No case”, the “accumulation of lipids at the hepatocite level” value [3] was “significantly reduced the accumulation of lipids” and the hygroscopicity (physchem [4]; crystalline salt) was “not very hygroscopic”. The solubility (physchem [4]; water) was > 200 mg/mL, the “electrocardiograph trace (PQ interval, ST section, extrasistol)” value (man; 30" to 20' from administration) was “does not show any variations” and the “hemopoietic apparatus, hepatic and renal operation” value (man; man) was “no variations which were statistically significant from normal”. For the same compound, the “minimum and maximum pressure, pulse and respiratory frequency” value (man; rapid intravenous or phleboclysis, 10-300 mg, 1 minute to 24 hours) was “does not show any variation from normal values”, the “change in carotid pressure, cardiac and respiratory frequency or electrocardiac trace” value (rabbit [5]) was “does not cause any change” and the Parkinson tremor ([6]; 10-40 mg per day with Levodopa) was “favourable modifications”. For the same compound, the akinesia and rigidity ([6]; 10-40 mg per day with Levodopa, versus Levodopa only) was “statistically more significant improvement”, the Levodopa side effects ([6]; 10-40 mg per day with Levodopa, nausea, vomit, inappetite, hypotension, asthenia, cephalea, hypersudoration, insomnia) was “significantly blocks” and the Levodopa-dependent psychic disturbances ([6]; with Levodopa) was “distinctly improves”. The “tetratogenic actions or malformations” value (rabbits) was “no tetratogenic actions were encountered or any malformations in the embryons or terminal feti”, the altered sleeping-waking ratios [7] was “considerably improve” and the “distribution to the tissues” value [8] was “distributed very rapidly to all the tissues”. The “analgesic activity, hot plate” value [9] was “active”, the “distribution to the tissues” value [10] was “distributed very rapidly to all the tissues” and the “recovery of functions in clear hypoxydotic states” value ([11]; hypoxydotic states) was “very quick and statistically significant”. The symptomatology of arteriosclerosis ([11]; intramuscular, intravenous or phleboclysis, 20-40 mg 3-4 times per day) was “very favourable modification of the sumptomatology”, the “improvement of the clinical framework in post-apoplectic syndromes” value ([11]; post-apoplectic syndromes) was “greater rapidity was found in the improvement of the clinical framework” and the remaining at 2880 h (physchem [12]) was 100%. The remaining at 4320 h (physchem [12]) was 100%, the “antiinflammatory activity, arthritis by adjuvant” value [13] was “active” and the “hypocholesterolemising and hypolipemising action” value ([14]; about 20-30 mg administered 2-3 times per day) was “proportional to the dose”. For the same compound, the “hepatic lipids in hepatosteatosis” value ([14]; bioptic examination, even after 60 days from the end of treatment) was “rapid fall in the hepatic lipids”, the “altered β/α lipoproteic ratios” value [14, 25] was “normalises the altered β/α lipoproteic ratios” and the “total cholesterolemia and hypertriglyceridemia” value [14, 25] was “marked fall”. For the same compound, the “antiinflammatory activity, edema by egg white” value [15] was “active”, the “remission of the main parameters for the diagnosis of depressive forms” value [16] was “significant remission” and the “analgesic activity, stretching by acetic acid” value [17] was “active”. For the same compound, the “change in carotid pressure, cardiac and respiratory frequency or electrocardiac trace” value (cat) was “does not cause any change”, the local tolerability (rabbit [18]; intermuscular injection, repeated over 180 days) was “excellent” and the local tolerability (rabbit [18]; intravenous, marginal vein of the auricular pavillon, rabbit) was “excellent”. For the same compound, the “tetratogenic actions or malformations” value (rats) was “no tetratogenic actions were encountered or any malformations in the embryons or terminal feti”, the “protection from hepatic cholesterol degeneration” value ([19]; 5 mg/kg) was “completely protected” and the “protection from hepatic cholesterol degeneration” value ([19]; 1-2 mg/kg/i.p.) was “poorly protected”. The Fresh liver weight ([19]; Batch IV, SAM 1 mg/kg/i.p. per day) was 17 g, the Fresh liver weight ([19]; Batch V, SAM 2 mg/kg/i.p. per day) was 16 g and the Fresh liver weight ([19]; Batch VI, SAM 5 mg/kg/i.p. per day) was 16 g. The “subjective symptomology and general objective conditions” value [20] was “often very important improvement”, the “tests of hepatic functionality” value [20] was “normalizing of all the tests of hepatic functionality” and the albumin amount [20, 26] was “an increase in the albumin amount”. For the same compound, the “altered percentage ratios between the electrophoretic fractions of the serum” value [20, 26] was “tendency to normalise”, the total protidemia [20, 26] was “statistically significant increase” and the “antiinflammatory activity, edema by carragenine” value [21] was “active”. For the same compound, the “antiinflammatory activity, granuloma by cotton peelets” value [22] was “active”, the “analgesic activity, Randal and Drlitto test” value [23] was “active” and the “percentage of SAM residue” value ([24]; 720 h) was 100.1%. For the same compound, the “percentage of SAM residue” value ([24]; 1440 h) was 99.9%.
